Measured values: paper PMC3961306, “Comparison of the Cancer Gene Targeting and Biochemical Selectivities of All Targeted Kinase Inhibitors Approved for Clinical Use” (PLoS ONE, 2014)

Experiments:
Assay in all cases: Kinase profiling in a biochemical assay panel (mobility shift assays and ELISA), %-inhibition at 1 μM; selectivity entropy
[1] = molecular target: T1, panel of more than 300 wild-type and mutant kinases (313 kinase panel) (Homo sapiens, UniProt P42681)
T1 sequence (P42681 1-527): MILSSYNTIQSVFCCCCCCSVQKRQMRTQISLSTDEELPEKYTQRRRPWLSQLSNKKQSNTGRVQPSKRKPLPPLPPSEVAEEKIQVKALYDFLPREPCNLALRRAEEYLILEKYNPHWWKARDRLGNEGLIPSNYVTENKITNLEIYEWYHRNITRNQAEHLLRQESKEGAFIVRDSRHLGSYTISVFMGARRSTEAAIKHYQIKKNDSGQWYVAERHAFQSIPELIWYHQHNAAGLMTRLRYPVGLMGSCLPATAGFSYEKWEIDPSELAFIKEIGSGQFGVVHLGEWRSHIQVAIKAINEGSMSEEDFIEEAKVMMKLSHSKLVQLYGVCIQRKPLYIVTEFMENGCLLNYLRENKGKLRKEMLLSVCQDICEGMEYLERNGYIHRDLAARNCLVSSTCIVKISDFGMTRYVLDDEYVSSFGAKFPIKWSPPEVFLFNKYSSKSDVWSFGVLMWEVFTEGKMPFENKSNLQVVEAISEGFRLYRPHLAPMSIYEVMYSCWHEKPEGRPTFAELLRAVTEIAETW

[2] = molecular target: T2, panel of more than 300 wild-type and mutant kinases (313 kinase panel) (Homo sapiens, UniProt P29322)
T2 sequence (P29322 28-1005): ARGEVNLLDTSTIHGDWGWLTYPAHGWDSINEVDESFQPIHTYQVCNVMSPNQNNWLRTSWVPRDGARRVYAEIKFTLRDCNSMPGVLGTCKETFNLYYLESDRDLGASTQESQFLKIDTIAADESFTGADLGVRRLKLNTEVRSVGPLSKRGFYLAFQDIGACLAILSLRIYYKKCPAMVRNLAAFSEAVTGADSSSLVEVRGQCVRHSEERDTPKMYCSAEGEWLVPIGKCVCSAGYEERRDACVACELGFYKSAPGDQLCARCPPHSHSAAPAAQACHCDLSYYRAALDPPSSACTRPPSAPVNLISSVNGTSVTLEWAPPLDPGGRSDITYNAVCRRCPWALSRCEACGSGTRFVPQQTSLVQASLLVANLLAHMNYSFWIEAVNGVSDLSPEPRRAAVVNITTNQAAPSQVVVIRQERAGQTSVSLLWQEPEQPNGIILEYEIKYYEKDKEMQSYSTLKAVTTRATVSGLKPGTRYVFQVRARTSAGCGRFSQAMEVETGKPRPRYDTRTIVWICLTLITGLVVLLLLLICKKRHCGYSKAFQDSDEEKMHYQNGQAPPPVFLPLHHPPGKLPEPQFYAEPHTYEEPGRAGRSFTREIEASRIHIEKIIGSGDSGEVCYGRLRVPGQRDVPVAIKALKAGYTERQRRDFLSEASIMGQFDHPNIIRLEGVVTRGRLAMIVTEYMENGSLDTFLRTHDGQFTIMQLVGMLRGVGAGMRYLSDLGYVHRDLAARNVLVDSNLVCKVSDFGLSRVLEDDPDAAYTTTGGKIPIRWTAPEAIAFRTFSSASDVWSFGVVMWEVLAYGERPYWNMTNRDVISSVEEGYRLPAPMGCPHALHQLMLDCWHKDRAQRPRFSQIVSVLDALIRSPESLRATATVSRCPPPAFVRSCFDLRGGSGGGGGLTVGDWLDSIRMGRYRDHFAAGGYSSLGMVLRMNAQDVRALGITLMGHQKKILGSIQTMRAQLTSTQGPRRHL

[3] = molecular target: panel of more than 300 wild-type and mutant kinases (313 kinase panel) (Homo sapiens, UniProt Q9H4B4)
[4] = molecular target: T3, panel of more than 300 wild-type and mutant kinases (313 kinase panel) (Homo sapiens, UniProt O14733)
T3 sequence (O14733 1-419): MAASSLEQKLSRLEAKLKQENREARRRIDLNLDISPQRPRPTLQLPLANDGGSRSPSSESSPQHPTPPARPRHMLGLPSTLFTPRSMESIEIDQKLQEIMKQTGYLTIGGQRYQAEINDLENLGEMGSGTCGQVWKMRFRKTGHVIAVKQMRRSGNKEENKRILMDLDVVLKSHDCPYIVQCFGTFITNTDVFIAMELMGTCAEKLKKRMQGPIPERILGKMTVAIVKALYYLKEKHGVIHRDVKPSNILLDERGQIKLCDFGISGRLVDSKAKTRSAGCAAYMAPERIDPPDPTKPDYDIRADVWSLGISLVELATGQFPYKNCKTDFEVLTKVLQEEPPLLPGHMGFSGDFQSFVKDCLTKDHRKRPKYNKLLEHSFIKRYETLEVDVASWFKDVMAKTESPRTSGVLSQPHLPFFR

[5] = molecular target: T4, panel of more than 300 wild-type and mutant kinases (313 kinase panel) (Homo sapiens, UniProt P15735)
T4 sequence (P15735 1-406): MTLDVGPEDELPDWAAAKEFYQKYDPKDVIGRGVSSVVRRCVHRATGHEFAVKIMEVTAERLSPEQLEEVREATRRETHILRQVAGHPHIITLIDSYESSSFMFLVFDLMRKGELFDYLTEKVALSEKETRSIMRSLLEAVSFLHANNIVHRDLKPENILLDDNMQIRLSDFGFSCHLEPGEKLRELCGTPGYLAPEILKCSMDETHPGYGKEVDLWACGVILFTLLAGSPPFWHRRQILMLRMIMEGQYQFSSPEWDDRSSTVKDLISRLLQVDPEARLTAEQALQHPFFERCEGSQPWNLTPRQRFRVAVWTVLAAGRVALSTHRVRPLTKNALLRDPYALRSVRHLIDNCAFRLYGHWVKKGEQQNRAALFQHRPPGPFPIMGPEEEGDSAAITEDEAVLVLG

[6] = kinase MAP2K7, compound at 1 μM

Chain of panel of more than 300 wild-type and mutant kinases (313 kinase panel) (Homo sapiens, UniProt Q9H4B4) (Q9H4B4 whole entry, change not shown): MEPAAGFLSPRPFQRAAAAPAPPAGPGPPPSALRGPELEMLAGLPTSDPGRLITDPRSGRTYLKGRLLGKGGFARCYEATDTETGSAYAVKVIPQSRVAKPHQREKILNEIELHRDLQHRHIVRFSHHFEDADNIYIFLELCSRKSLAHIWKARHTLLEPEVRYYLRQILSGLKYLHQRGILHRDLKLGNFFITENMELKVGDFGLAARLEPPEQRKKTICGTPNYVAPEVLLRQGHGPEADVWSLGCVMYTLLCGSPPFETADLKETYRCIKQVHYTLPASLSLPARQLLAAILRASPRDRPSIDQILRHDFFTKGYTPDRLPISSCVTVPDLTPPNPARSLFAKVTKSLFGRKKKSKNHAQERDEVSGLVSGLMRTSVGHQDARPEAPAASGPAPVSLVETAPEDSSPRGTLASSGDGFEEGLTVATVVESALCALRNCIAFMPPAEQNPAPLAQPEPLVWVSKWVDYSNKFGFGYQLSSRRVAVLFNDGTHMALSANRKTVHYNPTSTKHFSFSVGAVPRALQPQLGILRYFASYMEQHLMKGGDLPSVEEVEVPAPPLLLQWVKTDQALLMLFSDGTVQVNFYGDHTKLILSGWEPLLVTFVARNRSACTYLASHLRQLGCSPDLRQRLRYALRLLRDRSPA

| Compound | %-inhibition of TXK ([1]; kinase TXK, compound at 1 μM) [%] | %-inhibition of EPHA8 ([2]; kinase EPHA8, compound at 1 μM) [%] | %-inhibition of PLK3 ([3]; kinase PLK3, 1 μM) [%] | %-inhibition of MAP2K7 [4, 6] [%] | %-inhibition of PHKG2 ([5]; kinase PHKG2, 1 μM) [%] | %-inhibition of MAP2K7 ([4]; 1 µM) [%] | %-inhibition of PHKG2 ([5]; 1 µM) [%] | %-inhibition of EPHA8 ([2]; 1 µM) [%] | %-inhibition of PLK3 ([3]; 1 µM) [%] | %-inhibition of TXK ([1]; 1 µM) [%] |
| --- | --- | --- | --- | --- | --- | --- | --- | --- | --- | --- |
| Cc1ccc(C(=O)Nc2ccc(CN3CCN(C)CC3)c(C(F)(F)F)c2)cc1C#Cc1cnc2cccnn12 [ponatinib] | 98 | 100 | -11 | – | – | – | – | – | – | – |
| CC(C)(C)c1nc(-c2cccc(NS(=O)(=O)c3c(F)cccc3F)c2F)c(-c2ccnc(N)n2)s1 [dabrafenib] | 18 | 35 | – | -4.55 | 2 | – | – | – | – | – |
| COc1cc(Nc2c(C#N)cnc3cc(OCCCN4CCN(C)CC4)c(OC)cc23)c(Cl)cc1Cl [bosutinib] | 72 | 99 | 0.877 | – | – | – | – | – | – | – |
| Cc1nc(Nc2ncc(C(=O)Nc3c(C)cccc3Cl)s2)cc(N2CCN(CCO)CC2)n1 [dasatinib] | – | – | 10 | -7 | – | – | – | – | – | – |
| CO[C@H]1C[C@@H]2CC[C@@H](C)[C@@](O)(O2)C(=O)C(=O)N2CCCC[C@H]2C(=O)O[C@H]([C@H](C)C[C@@H]2CC[C@@H](OC(=O)C(C)(CO)CO)[C@H](OC)C2)CC(=O)[C@H](C)/C=C(\C)[C@@H](O)[C@@H](OC)C(=O)[C@H](C)C[C@H](C)/C=C/C=C/C=C/1C [temsirolimus] | -7 | -6.55 | -4.39 | 10 | -7 | – | – | – | – | – |
| C#Cc1cccc(Nc2ncnc3cc(OCCOC)c(OCCOC)cc23)c1 [erlotinib] | – | – | – | – | – | -5 | 4 | 33 | 6 | – |
| CCCS(=O)(=O)Nc1ccc(F)c(C(=O)c2c[nH]c3ncc(-c4ccc(Cl)cc4)cc23)c1F [vemurafenib] | 5 | 7 | -2.83 | 1.65 | -4.37 | – | – | – | – | – |
| N#CC[C@H](C1CCCC1)n1cc(-c2ncnc3[nH]ccc23)cn1 [ruxolitinib] | 10 | 0.379 | 13 | – | 18 | 4 | – | – | – | – |
| CC(=O)Nc1cccc(-n2c(=O)n(C3CC3)c(=O)c3c(Nc4ccc(I)cc4F)n(C)c(=O)c(C)c32)c1 [trametinib] | -4.66 | -8 | -6.59 | -2.32 | 2.81 | – | – | – | – | – |
| COc1cc2c(Nc3ccc(Br)cc3F)ncnc2cc1OCC1CCN(C)CC1 [vandetanib] | 60 | 98 | -6 | 5.36 | 19 | – | – | – | – | – |
| CS(=O)(=O)CCNCc1ccc(-c2ccc3ncnc(Nc4ccc(OCc5cccc(F)c5)c(Cl)c4)c3c2)o1 [lapatinib] | – | – | 6 | -4 | – | – | 0.269 | – | – | 0.699 |
| CO[C@H]1C[C@@H]2CC[C@@H](C)[C@@](O)(O2)C(=O)C(=O)N2CCCC[C@H]2C(=O)O[C@H]([C@H](C)C[C@@H]2CC[C@@H](OCCO)[C@H](OC)C2)CC(=O)[C@H](C)/C=C(\C)[C@@H](O)[C@@H](OC)C(=O)[C@H](C)C[C@H](C)/C=C/C=C/C=C/1C [everolimus] | -4.36 | -3.63 | -1.66 | 11 | -8 | – | – | – | – | – |
| CNC(=O)c1cc(Oc2ccc(NC(=O)Nc3ccc(Cl)c(C(F)(F)F)c3)c(F)c2)ccn1 [regorafenib] | -2.18 | 95 | 2.24 | -2.53 | -8 | – | – | – | – | – |
| O=S(=O)(c1cccc2cnccc12)N1CCCNCC1 [fasudil] | 1 | -10 | -4.66 | -3.26 | 4 | – | – | – | – | – |
| C[C@@H](Oc1cc(-c2cnn(C3CCNCC3)c2)cnc1N)c1c(Cl)ccc(F)c1Cl [crizotinib] | 39 | 82 | -2.24 | 4.36 | 10 | – | – | – | – | – |
| Cc1cn(-c2cc(NC(=O)c3ccc(C)c(Nc4nccc(-c5cccnc5)n4)c3)cc(C(F)(F)F)c2)cn1 [nilotinib] | 16 | 98 | 26 | -24 | -9 | – | – | – | – | – |
| Cc1ccc(Nc2nccc(N(C)c3ccc4c(C)n(C)nc4c3)n2)cc1S(N)(=O)=O [pazopanib] | 52 | 43 | 9 | 10 | 1 | – | – | – | – | – |
| COc1cc2nccc(Oc3ccc(NC(=O)C4(C(=O)Nc5ccc(F)cc5)CC4)cc3)c2cc1OC [cabozantinib] | 18 | 98 | -1.07 | 10 | -0.305 | – | – | – | – | – |
